Read-outs that look alike come from different tables or passages of the source. Each block holds one compound with its values, some of them ahead of it.
Experiments:
Mycobacterium xenopi = experiment: Antimicrobial activity; format: cell-based, M. xenopi
Protocol: (§1) Samples were tested for antimicrobial activity according to the Clinical Laboratory Standard Institution using American type of Culture Collection (ATCC) standard.

T. cruzi Tulahuen CL2 = experiment: Antitrypanosomal activity, T. cruzi on MRC-5 cells, LacZ reporter; format: cell-based, Trypanosoma cruzi; conditions: 7 days
Protocol: (§2) The integrated panel of microbial screens and standard screening methodologies were adopted as previously described. All assays were performed in triplicate at the Laboratory of Microbiology, Parasitology and Hygiene at the University of Antwerp (Antwerp, Belgium). Extracts were tested at five concentrations (64, 16, 4, 1 and 0.25 μg/mL) to establish a full dose-titration and determination of the IC50 (inhibitory concentration 50%). […] The selectivity of activity was assessed by simultaneous cytotoxicity evaluation on the MRC-5 fibroblast cell line.
(§3) Trypanosoma brucei Squib-427 strain (suramin-sensitive) was cultured at 37 °C and 5% CO2 in Hirumi-9 medium, supplemented with 10% fetal calf serum (FCS). About 1.5 × 10^4 trypomastigotes/well were added to each well and parasite growth was assessed after 72 h at 37 °C by adding resazurin [29]. For Chagas disease, T. cruzi Tulahuen CL2 (benznidazole-sensitive, LacZ-reporter strain) was maintained on MRC-5 cells in minimal essential medium (MEM) supplemented with 20 mM L-glutamine, 16.5 mM sodium hydrogen carbonate and 5% FCS. […] After incubation at 37 °C for 7 days, parasite growth was assessed by adding the substrate chlorophenol red α-D-galactopyranoside. The color reaction was read at 540 nm after 4 h and absorbance values were expressed as a percentage of the blank controls.

[1] = tested on: Trypanosoma brucei Squib-427 strain; experiment: Antitrypanosomal activity, T. brucei trypomastigotes, resazurin; format: cell-based; conditions: 72 h
Protocol: as §2, §3

[2] = tested on: Mycobacterium intracellulare; experiment: Antimicrobial activity; format: cell-based, M. intracellulare
Protocol: as §1

B. subtilis = experiment: Antimicrobial activity; format: cell-based, Bacillius subtilis; conditions: Bacillus subtilis
Protocol: as §1

Mycobacterium cheleneoi = experiment: Antimicrobial activity; format: cell-based, M. cheleneoi
Protocol: as §1

[3] = tested on: L. infantum MHOM/MA (BE)/67 amastigotes; experiment: Antileishmanial activity, intracellular amastigotes in primary peritoneal mouse macrophages; format: cell-based, Leishmania infantum; conditions: 5 days
Protocol: The integrated panel of microbial screens and standard screening methodologies were adopted as previously described. All assays were performed in triplicate at the Laboratory of Microbiology, Parasitology and Hygiene at the University of Antwerp (Antwerp, Belgium). […] The selectivity of activity was assessed by simultaneous cytotoxicity evaluation on the MRC-5 fibroblast cell line. […] L. infantum MHOM/MA (BE)/67 amastigotes were collected from the spleen of an infected donor hamster and used to infect primary peritoneal mouse macrophages. To determine in vitro antileishmanial activity, 3 × 10^4 macrophages were seeded in each well of a 96-well plate. After 2 days outgrowth, 5 × 10^5 amastigotes/well, were added and incubated for 2 h at 37 °C. Pre-diluted plant extracts were subsequently added and the plates were further incubated for 5 days at 37 °C and 5% CO2. Parasite burdens (mean number of amastigotes/macrophage) were microscopically assessed on 500 cells after Giemsa staining of the […] expressed as a percentage of the blank controls without plant extract.

C. albicans = experiment: Antimicrobial activity; format: cell-based; conditions: Candida albicans
Protocol: as §1

S. aureus = experiment: Antimicrobial activity; format: cell-based; conditions: Staphylococcus aureus
Protocol: as §1

P. aeruginosa = experiment: Antimicrobial activity; format: cell-based; conditions: Pseudomonas aeruginosa
Protocol: as §1

E. coli = experiment: Antimicrobial activity; format: cell-based; conditions: Escherichia coli
Protocol: as §1

Mycobacterium smegmatis = experiment: Antimicrobial activity; format: cell-based; conditions: Mycolicibacterium smegmatis
Protocol: as §1

[4] = tested on: Chloroquine-resistant P. falciparum K 1-strain; experiment: Antiplasmodial activity, Malstat (pLDH) assay; format: cell-based; conditions: Plasmodium falciparum; K1 strain, 72 h
Protocol: as §2
Chloroquine-resistant P. falciparum K 1-strain was cultured in human erythrocytes O^+ at 37 °C under a low oxygen atmosphere (3% O2, 4% CO2, and 93% N2) in RPMI-1640, supplemented with 10% human serum. Infected human red blood cells (200 μL, 1% parasitaemia, 2% haematocrit) were added to each well and incubated for 72 h. After incubation, test plates were frozen at −20 °C. Parasite multiplication was measured using the Malstat assay, a colorimetric method based on the reduction of 3-acetyl pyridine adenine dinucleotide (APAD) by parasite-specific lactate-dehydrogenase (pLDH).

[5] = Cytotoxicity assay, resazurin; format: cell-based; conditions: human, MRC-5 SV2 fibroblast cells
Protocol: The integrated panel of microbial screens and standard screening methodologies were adopted as previously described. All assays were performed in triplicate at the Laboratory of Microbiology, Parasitology and Hygiene at the University of Antwerp (Antwerp, Belgium). […] The selectivity of activity was assessed by simultaneous cytotoxicity evaluation on the MRC-5 fibroblast cell line. […] MRC-5 SV2 cells were cultivated in MEM, supplemented with L-glutamine (20 mM), 16.5 mM sodium hydrogen carbonate and 5% FCS. […] Cell viability was assessed fluorimetrically after 4 h of addition of resazurin. Fluorescence was measured (excitation 550 nm, emission 590 nm) and the results were expressed as % reduction in cell viability compared to control.

melting point: 152 to 154 °C
SMILES: COc1cc2oc3cc(OC)c(OC)c(CC=C(C)C)c3c(=O)c2c(O)c1CC=C(C)C

SMILES: COc1c(O)cc2oc3cc(O)c(CC=C(C)C)c(O)c3c(=O)c2c1CC=C(C)C [α-Mangostin]
MIC (Mycobacterium xenopi; read-out: MIC Mycobacterium species (M. xenopi)): 1.5 µg/mL | MIC (Mycobacterium xenopi; read-out: MIC Mycobacterium xenopi): 3.7 µM | IC50 (T. cruzi Tulahuen CL2): 8.9 µM | IC50 (T. cruzi Tulahuen CL2; Trypanosoma cruzi, TULAHUEN, MRC5, 168 h): 8 to 9 µM | IC50 [1]: 7.9 µM | IC50 ([1]; Trypanosoma brucei): 8 to 9 µM | MIC ([2]; read-out: MIC Mycobacterium intracellulare): 3.7 µM | MIC ([2]; read-out: MIC Mycobacterium species (M. intracellulare)): 1.5 µg/mL | MIC (B. subtilis): 3.9 µM | MIC (B. subtilis; text): 1.6 µg/mL | MIC (Mycobacterium cheleneoi; read-out: MIC Mycobacterium cheleneoi): 3.7 µM | MIC (Mycobacterium cheleneoi; read-out: MIC Mycobacterium species (M. cheleneoi)): 1.5 µg/mL | IC50 [3]: 8 µM | IC50 ([3]; Leishmania infantum, Macrophage, 120 h): 8 to 9 µM | MIC (C. albicans): > 200 µM | IC50 (C. albicans; no activity at all): > 200 µg/mL | MIC (S. aureus): 7.8 µM | MIC (S. aureus; text): 3.2 µg/mL | MIC (P. aeruginosa): > 200 µM | IC50 (P. aeruginosa; no activity at all): > 200 µg/mL | MIC (E. coli): > 200 µM | IC50 (E. coli; no activity at all): > 200 µg/mL | MIC (Mycobacterium smegmatis; read-out: MIC Mycobacterium smegmatis): 3.7 µM | MIC (Mycobacterium smegmatis; read-out: MIC Mycobacterium species (M. smegmatis)): 1.5 µg/mL | IC50 [4]: 2200 nM | IC50 at 72 h [5]: 7.5 µM
